Results as given in patent US20200268779A1, “USE OF SECOISOLARICIRESINOL DIGLUCOSIDES (SDGs) AND RELATED COMPOUNDS FOR PROTECTION AGAINST RADIATION-INDUCED CARDIOVASCULAR DYSFUNCTION” (THE TRUSTEES OF THE UNIVERSITY OF PENNSYLVANIA, priority 2017, published 2020).

Tested on: mice exposed to thoracic radiation
Assay: Thoracic radiation exposure in mice, non-invasive pulse oximetry (MouseOx)
Format: in vivo
Settings: male C57/LJ mice, single fraction thoracic radiation, LGM2605 post exposure daily for 3 weeks or daily for 3 months, measured 130-140 days post radiation
Method: FIG. 1. Arterial Oxygen saturation (A) and Pulse Distention (B) were measured in living mice (n=5), between 130 and 140 days post single fraction thoracic radiation exposure.
Mice (male, C57/LJ) were exposed to thoracic radiation and evaluated for multiple cardio-pulmonary measurements such as arterial oxygen saturation and pulse distention using non-invasive Pulse Oximetry (MouseOx non-invasive vital signs monitor STARR Life Sciences Corp., Oakmont, Pa.).
Pulse Distention is the amplitude of the cardiac light absorption signals. Pulse Distention is a hemodynamic measurement obtained by the pulse oximetry software, a measure of the local blood flow (carotid arteries) at the sensor location. […] This could indicate that LGM2605 helps reduce downstream effects of inflammation in tissues other than the lung.

SMILES: COc1cc(C[C@@H](CO[C@@H]2O[C@H](CO)[C@@H](O)[C@H](O)[C@H]2O)[C@H](CO[C@@H]2O[C@H](CO)[C@@H](O)[C@H](O)[C@H]2O)Cc2ccc(O)c(OC)c2)ccc1O [LGM2605, secoisolariciresinol diglucoside]
- Pulse distention (decreased significantly in irradiated controls (FIG. 1B)): remained at baseline levels
- Arterial blood oxygenation (arterial oxygen saturation) (vs irradiated controls and vehicle (FIG. 1A)): improved arterial blood oxygenation
